“And” between values parts separate entries of the source, which are not always exact repeats. Identical values can stand only once.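 Following 48 hours of exposure in 96-well plates, responses at five concentrations were used to interpolate endpoints linearly. GI50 = concentration required for 50% inhibition of growth.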 The source made the active and inactive calls. No stated cut-off is given here; in the data, active = GI50 up to about 1.1 µM and inactive = higher.
Assays:
Assay in all cases: growth of human tumour cells (NCI), 48 h
786-0 = test system: 786-0
EKVX = test system: EKVX
IGROV-1 = test system: IGROV-1
KM-20L2 = test system: KM-20L2
KM12 = test system: KM12
MOLT-4 = test system: MOLT-4
NCI-H226 = test system: NCI-H226
NCI-H460 = test system: NCI-H460
OVCAR-8 = test system: OVCAR-8
RXF 393 = test system: RXF 393
SF-539 = test system: SF-539
SN12C = test system: SN12C
SR = test system: SR
UACC-257 = test system: UACC-257
UO-31 = test system: UO-31
HL-60 = test system: HL-60

| Structure (SMILES) | GI50 (786-0) | GI50 (EKVX) | GI50 (IGROV-1) | GI50 (KM-20L2) | GI50 (KM12) | GI50 (MOLT-4) | GI50 (NCI-H226) | GI50 (NCI-H460) | GI50 (OVCAR-8) | GI50 (RXF 393) | GI50 (SF-539) | GI50 (SN12C) | GI50 (SR) | GI50 (UACC-257) | GI50 (UO-31) | GI50 (HL-60) |
| --- | --- | --- | --- | --- | --- | --- | --- | --- | --- | --- | --- | --- | --- | --- | --- | --- |
| S=c1sc2c(Cl)ncnc2n1-c1ccccc1 | 15.1 µM (inactive) | 17.7 µM (inactive) | 15 µM (inactive) | 19.1 µM (inactive) | 17.2 µM (inactive) | 18.2 µM (inactive) | 13.4 µM (inactive) | 15.7 µM (inactive) | 16.1 µM (inactive) | 15.1 µM (inactive) | 16.3 µM (inactive) | 15.8 µM (inactive) | 3.27 µM (inactive) | 15.5 µM (inactive) | 18.7 µM (inactive) |  |
| CC1C(c2ccccc2)=CCON1c1ccccc1 (stereo not given) | > 100 µM (inactive) | > 100 µM (inactive) | > 100 µM (inactive) | > 100 µM (inactive) | > 100 µM (inactive) | > 100 µM (inactive) | > 100 µM (inactive) | > 100 µM (inactive) | > 100 µM (inactive) | > 100 µM (inactive) | > 100 µM (inactive) | > 100 µM (inactive) | > 100 µM (inactive) | > 100 µM (inactive) | > 100 µM (inactive) | > 100 µM (inactive) |
| NC(=O)/C(=N\NC(=O)C[n+]1ccccc1)C1NC(=O)NC1=O (stereo not given) | > 100 µM (inactive) | > 100 µM (inactive) | > 100 µM (inactive) | > 100 µM (inactive) | > 100 µM (inactive) | > 100 µM (inactive) | > 100 µM (inactive) | > 100 µM (inactive) | > 100 µM (inactive) | > 100 µM (inactive) | > 100 µM (inactive) | > 100 µM (inactive) | > 100 µM (inactive) | > 100 µM (inactive) | > 100 µM (inactive) | > 100 µM (inactive) |
| CCCC(=O)c1c(NOC2OC(COC(C)=O)C(OC(C)=O)C(OC(C)=O)C2OC(C)=O)nc(OC)n(C)c1=O (stereo not given) | > 100 µM (inactive) | > 100 µM (inactive) | > 100 µM (inactive) | > 100 µM (inactive) | > 100 µM (inactive) | > 100 µM (inactive) | > 100 µM (inactive) | > 100 µM (inactive) | > 100 µM (inactive) | > 100 µM (inactive) | > 100 µM (inactive) | > 100 µM (inactive) | > 100 µM (inactive) |  | 6.1 µM (inactive) |  |
| CCCCN(CC)CC(C(C)=O)c1c(O)c2ccccc2oc1=O (stereo not given) | > 100 µM (inactive) | > 100 µM (inactive) | > 100 µM (inactive) | > 100 µM (inactive) | > 100 µM (inactive) | > 100 µM (inactive) | > 100 µM (inactive) | > 100 µM (inactive) | > 100 µM (inactive) | > 100 µM (inactive) | > 100 µM (inactive) | > 100 µM (inactive) | > 100 µM (inactive) | > 100 µM (inactive) | > 100 µM (inactive) | > 100 µM (inactive) |
| O=c1[nH]cnc2c1nnn2C1C=C(CO)C(O)C1O (stereo not given) | > 100 µM (inactive) | > 100 µM (inactive) | > 100 µM (inactive) | > 100 µM (inactive) | > 100 µM (inactive) | > 100 µM (inactive) | > 100 µM (inactive) | > 100 µM (inactive) | > 100 µM (inactive) | > 100 µM (inactive) | > 100 µM (inactive) | > 100 µM (inactive) | > 100 µM (inactive) | > 100 µM (inactive) | > 100 µM (inactive) |  |
| Cc1ccc(S(=O)(=O)OCC23CCC(C4CC42)C2CC23)cc1 (stereo not given) | > 100 µM (inactive) |  | > 100 µM (inactive) | > 100 µM (inactive) |  | 50.8 µM (inactive) | 95.7 µM (inactive) | 88.1 µM (inactive) | > 100 µM (inactive) |  |  | > 100 µM (inactive) | 38.5 µM (inactive) | 7.01 µM (inactive) | 44.2 µM (inactive) | 17.7 µM (inactive) |
| CCOC(=O)C(C(=O)c1ccccc1-c1ccccc1C(=O)O)=P(c1ccccc1)(c1ccccc1)c1ccccc1 | 37.8 µM (inactive) | 32.9 µM (inactive) | 20.6 µM (inactive) | 21 µM (inactive) |  | 24.2 µM (inactive) | 24.4 µM (inactive) | 16.5 µM (inactive) | 16.9 µM (inactive) | 37.2 µM (inactive) | 18.9 µM (inactive) | 30.5 µM (inactive) | 23.6 µM (inactive) | 25.5 µM (inactive) | > 10 µM (inactive) | 19.8 µM (inactive) |
| CCN(CC)CC(C)(C)C(=O)/C=C/c1cccc(/C=C/C(=O)C(C)(C)CN(CC)CC)c1 | 0.579 µM (active) | 1.16 µM (inactive) | 1.02 µM (active) | 1.07 µM (active) | 0.471 µM (active) | 0.27 µM (active) | 1.76 µM (inactive) | 0.692 µM (active) | 0.333 µM (active) | 0.433 µM (active) | 1.05 µM (active) | 0.303 µM (active) | 0.305 µM (active) | 1.22 µM (inactive) | 1.75 µM (inactive) |  |
| Cc1ccccc1/N=N/c1c(-c2ccccc2)nn(C(=O)CC(=O)Nc2cccc(Cl)c2)c1-c1ccccc1 | 18.5 µM (inactive) | 28.4 µM (inactive) | > 31.6 µM (inactive) | 21.5 µM (inactive) |  | 13 µM (inactive) | 16 µM (inactive) | 19.6 µM (inactive) | 21.3 µM (inactive) | 19.9 µM (inactive) | 24.2 µM (inactive) | 15.8 µM (inactive) | 9.1 µM (inactive) | 0.247 µM (active) | 14.5 µM (inactive) | 17.3 µM (inactive) |
| Cc1cc2c(c(C#N)c1C)NC(=O)CCC2=O | > 100 µM (inactive) | > 100 µM (inactive) | > 100 µM (inactive) | > 100 µM (inactive) | > 100 µM (inactive) | > 100 µM (inactive) |  | > 100 µM (inactive) | > 100 µM (inactive) | 64 µM (inactive) | > 100 µM (inactive) | > 100 µM (inactive) | > 100 µM (inactive) | > 100 µM (inactive) | 16.5 µM (inactive) | > 100 µM (inactive) |
| C=CC1(C(=O)O)CCC(C(C)(C)C)CC1 (stereo not given) | > 100 µM (inactive) | > 100 µM (inactive) | > 100 µM (inactive) | > 100 µM (inactive) | > 100 µM (inactive) | > 100 µM (inactive) | > 100 µM (inactive) | > 100 µM (inactive) | > 100 µM (inactive) | > 100 µM (inactive) | > 100 µM (inactive) | > 100 µM (inactive) | > 100 µM (inactive) | > 100 µM (inactive) | > 100 µM (inactive) | > 100 µM (inactive) |
| CC(=O)OCC12CC(CC1OC(C)=O)c1ccccc12 (stereo not given) | > 100 µM (inactive) |  | > 100 µM (inactive) | > 100 µM (inactive) |  | > 100 µM (inactive) | > 100 µM (inactive) | > 100 µM (inactive) | > 100 µM (inactive) |  |  | > 100 µM (inactive) | > 100 µM (inactive) | > 100 µM (inactive) | > 100 µM (inactive) | > 100 µM (inactive) |
| C[C@@H]1C[C@@H]2C(=O)N(c3ccccc3)C(=O)[C@@H]2c2[nH]c3ccc(Br)cc3c21 | 39.2 µM (inactive) | 36.9 µM (inactive) | 87.1 µM (inactive) | > 100 µM (inactive) | 25.2 µM (inactive) | 25 µM (inactive) |  | 42.3 µM (inactive) | 21.8 µM (inactive) | 43.4 µM (inactive) | 65.8 µM (inactive) | 41 µM (inactive) | 42 µM (inactive) | > 100 µM (inactive) | 45.9 µM (inactive) | 26.8 µM (inactive) |
| COc1ccccc1/C=N/C12CC3CC(CC(C3)C1)C2 | > 100 µM (inactive) | > 100 µM (inactive) |  | > 100 µM (inactive) | > 100 µM (inactive) | > 100 µM (inactive) | > 10 µM (inactive) | > 100 µM (inactive) | > 100 µM (inactive) | > 100 µM (inactive) | > 100 µM (inactive) | > 100 µM (inactive) | > 100 µM (inactive) | > 100 µM (inactive) | > 100 µM (inactive) | 73.6 µM (inactive) |
| N#CC(c1ccccc1)c1nc2ccc(N)cc2[n+]([O-])c1C(C#N)c1ccccc1 (stereo not given) | > 100 µM (inactive) | > 100 µM (inactive) | > 100 µM (inactive) | 75.3 µM (inactive) | 60.7 µM (inactive) | 53.7 µM (inactive) | > 100 µM (inactive) | 73.3 µM (inactive) | 56.4 µM (inactive) | 38.9 µM (inactive) | > 100 µM (inactive) | 79.1 µM (inactive) | 23.8 µM (inactive) | > 100 µM (inactive) | 68.2 µM (inactive) | 34.9 µM (inactive) |
| C[C@@H]1CC[C@@]2(C)OC(c3ccccc3)[C@H](CO)N2C1=O (stereo not given in full) | > 100 µM (inactive) | > 100 µM (inactive) | > 100 µM (inactive) | > 100 µM (inactive) | > 100 µM (inactive) |  |  | > 100 µM (inactive) | > 100 µM (inactive) | > 100 µM (inactive) | > 100 µM (inactive) | > 100 µM (inactive) | > 100 µM (inactive) | > 100 µM (inactive) |  |  |
| O=c1ncccn1[C@@H]1O[C@H](CO)[C@@H](O)[C@@H]1F | > 100 µM (inactive) | > 100 µM (inactive) | > 100 µM (inactive) | > 100 µM (inactive) |  | > 100 µM (inactive) | > 100 µM (inactive) |  | > 100 µM (inactive) and > 95.9 µM (inactive) | > 100 µM (inactive) |  | > 100 µM (inactive) | > 68.2 µM (inactive) | > 100 µM (inactive) |  | > 100 µM (inactive) |
| CCOC(=O)C(Cc1cn(S(=O)(=O)c2ccccc2)c2ccccc12)(NC(C)=O)C(=O)OCC | 72.8 µM (inactive) |  | 46.7 µM (inactive) | 46.6 µM (inactive) | 29.4 µM (inactive) | 19 µM (inactive) | 21.3 µM (inactive) | 32.7 µM (inactive) | 33 µM (inactive) |  | 30.3 µM (inactive) |  | 15.2 µM (inactive) | 24.5 µM (inactive) | 17.1 µM (inactive) | 16.5 µM (inactive) |
